“Also recorded” adds a separate entry of the source.
Key:
pregnant rats = assay: Time of delivery of timed-pregnant rats (hours after 8 a.m. of day 22 of gestation); type: in vivo, Sprague-Dawley rats; conditions: for delay of delivery compared to vehicle control: from day 13
Description: Nonpregnant and timed-pregnant Sprague-Dawley rats (200-250 g) from Charles-River Laboratories (Wilmington, Mass., USA) were delivered to animal care facilities on day 12 of gestation (day 1 being the day when a sperm plug was observed). The animals were housed separately, with free access to food and water and maintained on a constant 12-hour light-dark cycle. Control pregnant rats were spontaneously delivering on day 22 and 23 of gestation. For the measurements with the collascope the animals were anaesthetized (interperitoneal (i.p). injection) with a combination of xylazine (Gemini, Burns Veterinary Supply Inc, Rockville Center, N.Y., USA) and ketamine HCl (Ketaset; Fort Dodge Laboratories Inc, Fort Dodge, Iowa, USA). The animals were randomly allocated to one of the groups and sacrificed by carbon dioxide inhalation on day 3, 5, 7 and 10 postpartum or on day 25 of pregnancy in the groups with delayed delivery. All procedures were approved by the Animal Care and Use Committee of the St. Joseph's Hospital and Medical Center in Phoenix.
Prior to any treatment LIF measurements were made in control rats throughout pregnancy and postpartum to estimate the LIF profile during gestation (see FIG. 1). Pregnant rats (N=6/group) were treated (see FIG. 2), when not otherwise mentioned (see FIG. 3), from day 13 of pregnancy until delivery. Single daily treatments were performed at 8 a.m. and twice a day treatments at 8 a.m. and 8 p.m. All single injections (4 mg P4, 10 mg 17P, 2 mg promegestone (R5020)) were by the subcutaneous route (s.c.) in sesame oil (0.2 ml), which was also used for the controls. Vaginal gels were applied twice a day with a blunt ball-top needle deep into the vagina. Crinone was used for the P4 vaginal group (equivalent volumes of Crinone were used for 2-15 mg P4/treatment), all data presented show the results of the highest dose (total daily dose of 30 mg P4=⅓ of a applicator of 8% Crinone that contains 90 mg P4). For the vaginal promegestone (R5020) group micronized promegestone (R5020) (1 mg/treatment) was mixed into 0.18 ml of Replens. The control rats for the vaginal groups were treated with Replens (0.18 ml/treatment). For oral P4 treatments (15 mg, bid, vehicle sesame oil or H2O, volume 1 ml) gavage was used. For topical P4 treatment (15 mg, bid, P4 in 1 ml sesame oil, fish oil or in Replens) the drug was applied on the back of animals that were shaved on day 13, 17 and 21. In some animals (N=6) RU-486 (3 mg in 0.2 ml sesame oil) was injected subcutaneously once on day 16 of gestation.
Times of delivery (see also FIG. 4) of controls and various treatment groups were determined as hours after 8 a.m. of day 22 of gestation (FIG. 5). The expulsion of one pup was defined as delivery.
The cervical LIFs obtained at different times of gestation (FIG. 1) were compared using one-way analysis of variance (ANOVA) and multiple pairwise comparison procedures (Holm-Sidak). Student's t-test was used to compare the LIF results of a treatment group to its specific control group at any time in gestation and postpartum and also to determine the differences in delivery times (FIGS. 2, 3 and 5). A two-tailed probability value of P<0.05 was considered statistically significant.
FIG. 15 depicts delay of delivery times in timed pregnant rats treated with progesterone (P4) with different routes and vehicles. Treatment was started on day 13 of gestation and continued until delivery of pups or until delivery was blocked at […] (day 25) past day 22 of gestation. 8 am on day 22 is noted as hour 0 and delay is compared to control group treated only with vehicle. Treatment groups included: P4 in fish oil (vaginal, nasal, injection and topical groups), P4 in cocoa butter (rectal) and P4 in sesame oil (oral). All treatment groups received a total daily dose of 30 mg P4/day except the nasal and subcutaneous injection group which received 1 mg/day and 4 mg/day, respectively. […]

[1] = Plasma progesterone levels in pregnant rats after various treatments; type: in vivo
Protocol: FIG. 6 depicts plasma levels of progesterone following various treatments. Plasma progesterone (P4) levels in pregnant rats at day 18 and 21 days of gestation after treatment with P4 vaginal gel (15 mg bid), P4 injections (4 mg subcutaneous daily), topical P4 in fish oil (15 mg bid) and controls (Ctr) treated with vehicles. FIG. 24 depicts pharmokinetic data related to plasma serum levels after topical delivery in rats following various treatments on day 19 of gestation (single treatment only).

[2] = single treatment only on day 19 of gestation

In the case of CC(=O)[C@H]1CC[C@H]2[C@@H]3CCC4=CC(=O)CC[C@]4(C)[C@H]3CC[C@]12C [P4, progesterone], the “delay of delivery compared to controls” value (pregnant rats; P4 30 mg/day in DHA (docosahexanoic acid) from day 20) is reported as “significant delays when compared to controls”, the “delay of delivery compared to controls” value (pregnant rats; P4 30 mg/day in EPA (eicosapentanoic acid) from day 20) is reported as “All treatment groups except EPA had significant delays” and the “delay of delivery compared to controls” value (pregnant rats; P4 30 mg/day in GNC Triple Strength fish oil from day 20) is reported as “significant delays when compared to controls”. The “delay of delivery compared to controls” value (pregnant rats; P4 30 mg/day in Neptune Krill Oil from day 20) was “significant delays when compared to controls”, the “delay of delivery compared to controls” value (pregnant rats; P4 30 mg/day in Nutrasea fish oil from day 20) was “significant delays when compared to controls” and the “delay of delivery compared to controls” value (pregnant rats; P4 30 mg/day in Nutrasea+D fish oil from day 20) was “significant delays when compared to controls”. For the same compound, the “delay of delivery compared to controls” value (pregnant rats; P4 30 mg/day in Omegasorb GNC fish oil from day 20) was “complete block of delivery”, the delay of delivery (pregnant rats; P4 in fish oil, s.c. or topical, all groups begun on days 19, 20, 21 or 22) was “significant delay of delivery” and the block of delivery (pregnant rats; P4 in fish oil, subcutaneous injection begun on day 21) was “complete block in all animals”. For the same compound, the block of delivery (pregnant rats; P4 in fish oil, topical application begun on day 19) was “complete block in all animals”, the delivery (pregnant rats; P4 in fish oil, treatment begun just prior to delivery on day 22) was “blocked or significantly delayed” and the effect on delivery (pregnant rats; oral P4 15 mg bid by gavage in sesame oil or H2O from day 13) was “Delivery was not changed; also recorded: no effect on time of delivery”. For the same compound, the “delay of delivery compared to vehicle control” value (pregnant rats; rectal P4 in cocoa butter, 30 mg P4/day) was “significant delay of delivery”, the effect on delivery (pregnant rats; s.c. injection daily in sesame oil from day 13 (P4 4 mg, 17P 10 mg, R5020 2 mg)) was “inhibits delivery; also recorded: completely blocked delivery; also recorded: prevented delivery; also recorded: completely inhibited; also recorded: delivery is inhibited” and the “delay of delivery compared to vehicle control” value (pregnant rats; subcutaneous injection of P4 in fish oil, 4 mg/day) was “significant delay of delivery”. For the same compound, the delay of delivery (pregnant rats; topical P4 15 mg bid in Omegasorb fish oil from day 19) was “significant delay of delivery”, the effect on delivery (pregnant rats; topical P4 15 mg bid in Replens from day 13) was “Delivery was not changed; also recorded: not at all” and the delay of delivery (pregnant rats; topical P4 15 mg bid in coconut oil from day 19) was “significant delay of delivery”. The delay of delivery (pregnant rats; topical P4 15 mg bid in corn oil from day 19) was “All groups but corn oil had significant delay of delivery”, the effect on delivery (pregnant rats; topical P4 15 mg bid in fish oil from day 13) was “inhibits delivery; also recorded: completely” and the delay of delivery (pregnant rats; topical P4 15 mg bid in olive oil from day 19) was “significant delay of delivery”. For the same compound, the effect on delivery (pregnant rats; topical P4 15 mg bid in sesame oil from day 13) was “inhibits delivery; also recorded: only partially”, the “delay of delivery compared to vehicle control” value (pregnant rats; topical P4 in fish oil, 30 mg P4/day) was “significant delay of delivery” and the effect on delivery (pregnant rats; vaginal bid from day 13 (P4 15 mg as Crinone; R5020 1 mg in Replens)) was “Delivery was not changed; also recorded: failed to inhibit delivery; also recorded: no effect on cervical ripening and on delivery; also recorded: no significant effect on delaying term delivery”. The “plasma circulation levels of progesterone, topical compared to vaginal or subcutaneous injection” value ([1]; day 21, topical P4 in fish oil 15 mg bid vs vaginal gel 15 mg bid or 4 mg s.c. daily) was “highly effective in increasing plasma circulation levels of progesterone”, the “persistence of raised plasma levels following administration” value ([1]; single topical treatment on day 19 of gestation) was “persist for 1, 2, or more days” and the “plasma levels after topical delivery” value [1, 2] was “increase markedly”. The “plasma levels after topical delivery compared with subcutaneous injection” value [1, 2] was “even higher than subcutaneous injection”.

Reference: US10449183B2, “Methods for inhibiting preterm labor and uterine contractility disorders and preventing cervical ripening” (DIGNITY HEALTH, priority 2010, dated 2019)
